Data reported in publication PMC3856494, “Radiofluorination and biological evaluation of N-aryl-oxadiazolyl-propionamides as potential radioligands for PET imaging of cannabinoid CB2 receptors” (Organic and Medicinal Chemistry Letters, 2013).
Read-outs that look alike come from different tables or passages of the source.

Tests used:
human CB1R = human CB1R (Homo sapiens, UniProt P21554); assay: In vitro CB receptor affinity assay, displacement of [3H]CP55,940, CHO cells transfected with human CB1R; assay type: binding; settings: [3H]CP55,940 displacement, hCB1R CHO cells; read-out: Ki CB1R
Procedure: (§1) For binding experiments, Chinese hamster ovary (CHO) cell lines stably transfected with human CB1R human and CB2R were used according to the procedures previously described. […] The binding experiments were performed in triplicates, and data were given as mean values from independent experiments.

human CB2R = human CB2R (Homo sapiens, UniProt P34972); assay: In vitro CB receptor affinity assay, displacement of [3H]CP55,940, CHO cells transfected with human CB2R; assay type: binding
Procedure: as §1

[1] = HPLC-based logD determination; assay type: physicochemical; settings: RP-HPLC, reference compounds, n = 3 to 6
Procedure: The distribution coefficients of [^18F]1 and [^18F]2 were also calculated from RP-HPLC retention times in three different systems: (1) isocratic elution (60% MeCN/20 mM NH4OAc at a flow rate of 1 mL/min) and (2) gradient elution (starting from 10% MeCN/20 mM NH4OAc aq. for 10 min with a gradient to 90% MeCN/20 mM NH4OAc aq. over 30 min at a flow rate of 1 mL/min) on a Reprosil-Pur C18-AQ column (5 μm, 250 × 4.6 mm, Dr. Maisch HPLC GmbH, Ammerbruch-Entringen, Germany), and (3) isocratic elution (52.5% MeCN/20 mM NH4OAc at a flow rate of 1 mL/min) on a Prodigy 5 μm C8 (250 × 4 mm; Phenomenex Ltd, Aschaffenburg, Germany) using the reference compounds following the protocol according to the EU guideline 67/548/EWG [44].

Sequence of human CB2R (P34972 whole entry): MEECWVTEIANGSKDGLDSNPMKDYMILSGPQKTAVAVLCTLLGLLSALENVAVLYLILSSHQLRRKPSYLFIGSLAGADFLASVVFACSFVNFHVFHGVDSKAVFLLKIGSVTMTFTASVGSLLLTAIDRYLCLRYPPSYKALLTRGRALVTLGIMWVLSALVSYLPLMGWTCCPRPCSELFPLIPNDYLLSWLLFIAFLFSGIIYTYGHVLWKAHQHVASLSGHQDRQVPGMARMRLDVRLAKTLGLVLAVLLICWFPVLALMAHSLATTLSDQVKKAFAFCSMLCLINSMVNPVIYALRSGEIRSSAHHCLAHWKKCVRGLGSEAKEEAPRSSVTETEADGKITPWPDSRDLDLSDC
Sequence of human CB1R (P21554 whole entry): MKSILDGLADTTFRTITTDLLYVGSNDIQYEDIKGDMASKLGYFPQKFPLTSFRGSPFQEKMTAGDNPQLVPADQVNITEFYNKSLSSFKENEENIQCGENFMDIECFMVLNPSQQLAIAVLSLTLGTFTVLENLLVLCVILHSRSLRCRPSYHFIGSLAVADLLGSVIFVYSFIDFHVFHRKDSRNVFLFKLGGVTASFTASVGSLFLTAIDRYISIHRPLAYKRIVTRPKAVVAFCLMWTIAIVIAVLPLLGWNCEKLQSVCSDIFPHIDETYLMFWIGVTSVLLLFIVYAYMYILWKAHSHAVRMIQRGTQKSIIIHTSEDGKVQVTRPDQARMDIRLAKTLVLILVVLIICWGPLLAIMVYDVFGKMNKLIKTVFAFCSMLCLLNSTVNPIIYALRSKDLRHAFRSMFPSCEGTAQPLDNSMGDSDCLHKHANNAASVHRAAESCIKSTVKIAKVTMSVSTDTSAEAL

melting point [°C] | Ki (human CB2R; [3H]CP55,940 displacement, hCB2R CHO cells, read-out: Ki CB2R) [nM] | SMILES | Ki (human CB1R) [nM] | chromatographic logD ([1]; gradient 10% to 90% MeCN/20 mM NH4OAc, read-out: logD Reposil-Pur C18-AQ Gradient) | chromatographic logD ([1]; isocratic 52.5% MeCN/20 mM NH4OAc, read-out: logD Prodigy 5 μ C8 Isocratic) | chromatographic logD ([1]; isocratic 60% MeCN/20 mM NH4OAc, read-out: logD Reposil-Pur C18-AQ Isocratic) | Ki (human CB2R) [nM]
104 | > 1000 | O=C(O)CCc1nc(-c2ccc(F)cc2Br)no1 [Compound 10, 3-(3-(2-Bromo-4-fluorophenyl)-1,2,4-oxadiazol-5-yl)propanoic acid] | > 1000 | – | – | – | –
– | – | CCn1c2ccccc2c2cc(NC(=O)CCc3nc(-c4ccc(F)cc4Br)no3)ccc21 [Compound 2, 3-[3-(2-Bromo-4-fluorophenyl)-1,2,4-oxadiazol-5-yl]-N-(9-ethyl-9H-carbazol-3-yl)propanamide] | > 1000 | 4.35 ± 0.11 | 4.4 ± 0.35 | 4.87 ± 0.36 | 4.27 ± 3.03
